Entries after “also recorded” stand apart in the source; their conditions may differ.
How the values were obtained:
Type in all cases: biochemical
[1] = biological target: T1, Streptococcus pneumoniae aspartate semialdehyde dehydrogenase (spASADH) (Streptococcus pneumoniae, UniProt Q8DQ00); assay: spASADH kinetic assay: reverse direction, NADPH absorbance at 340 nm; Ki from Dixon plot assuming competitive inhibition against ASA; details: pH 8.6, r.t., 0.15 mM ASA, 1.5 mM NADP, 20 mM phosphate
T1 construct: homodimer from general knowledge
T1 sequence (Q8DQ00 1-358): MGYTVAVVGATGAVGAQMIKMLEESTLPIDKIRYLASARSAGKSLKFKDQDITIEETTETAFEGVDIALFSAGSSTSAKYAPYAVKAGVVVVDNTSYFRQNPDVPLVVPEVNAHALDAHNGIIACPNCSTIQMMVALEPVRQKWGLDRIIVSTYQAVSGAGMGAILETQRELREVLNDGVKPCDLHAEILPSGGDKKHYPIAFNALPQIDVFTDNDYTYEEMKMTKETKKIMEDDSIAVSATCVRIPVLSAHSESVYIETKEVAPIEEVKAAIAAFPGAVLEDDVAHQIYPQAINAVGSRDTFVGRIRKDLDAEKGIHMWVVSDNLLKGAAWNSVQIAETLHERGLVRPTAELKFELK

[2] = biological target: T2, Vibrio cholerae aspartate semialdehyde dehydrogenase (vcASADH) (Vibrio cholerae serotype O1, UniProt P23247); assay: biochemical; details: relative to parent or neighbouring derivative
T2 construct: made in house

[3] = biological target: Streptococcus pneumoniae aspartate semialdehyde dehydrogenase (spASADH) (Streptococcus pneumoniae, UniProt Q8DQ00); assay: biochemical; details: relative to parent or neighbouring derivative
[4] = biological target: Vibrio cholerae aspartate semialdehyde dehydrogenase (vcASADH); assay: vcASADH kinetic assay: reverse direction, NADPH absorbance at 340 nm; Ki from Dixon plot assuming competitive inhibition against ASA; details: pH 8.6, r.t., 0.3 mM ASA, 1.5 mM NADP, 20 mM phosphate
[5] = biological target: T3, aspartate N-acetyltransferase (ANAT) (Homo sapiens, UniProt Q8N9F0); assay: ANAT substrate selectivity (acetyl group acceptor); details: glutamate vs. aspartate as acetyl acceptor
T3 sequence (Q8N9F0 1-302): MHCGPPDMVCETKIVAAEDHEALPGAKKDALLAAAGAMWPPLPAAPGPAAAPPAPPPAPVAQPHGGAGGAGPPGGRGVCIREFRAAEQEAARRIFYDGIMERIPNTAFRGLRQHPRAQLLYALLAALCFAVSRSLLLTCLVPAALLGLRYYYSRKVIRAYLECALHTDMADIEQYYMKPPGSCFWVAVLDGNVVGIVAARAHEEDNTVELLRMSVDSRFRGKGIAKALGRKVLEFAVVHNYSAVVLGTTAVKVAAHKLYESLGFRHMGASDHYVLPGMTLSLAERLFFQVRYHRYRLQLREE
Text: ANAT is difficult to purify.

T2 sequence (P23247 whole entry): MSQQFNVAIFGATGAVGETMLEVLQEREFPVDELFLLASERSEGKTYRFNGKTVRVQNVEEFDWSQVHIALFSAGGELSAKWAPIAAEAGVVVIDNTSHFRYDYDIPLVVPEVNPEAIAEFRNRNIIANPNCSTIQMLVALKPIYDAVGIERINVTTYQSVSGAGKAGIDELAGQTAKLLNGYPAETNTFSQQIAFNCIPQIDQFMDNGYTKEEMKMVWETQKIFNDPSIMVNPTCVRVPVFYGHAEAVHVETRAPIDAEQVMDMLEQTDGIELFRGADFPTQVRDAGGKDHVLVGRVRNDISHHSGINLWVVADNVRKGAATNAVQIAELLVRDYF

Row | SMILES | Ki ([1]; FIG. 5, Table 2) | inhibition / binding affinity for vcASADH (in words) [2] | inhibition / binding affinity for spASADH (in words) [3] | Ki ([4]; FIG. 5, Table 2) | catalytic efficiency relative to that of the physiological substrate [5] | Ki ([1]; FIG. 4, Table 1) | Ki ([4]; FIG. 4, Table 1)
1 | O=C(O)CN(Cc1ccc(C(=O)O)c(C(=O)O)c1)Cc1ccccc1OC(F)(F)F [Compound 27, N-(2-trifluoromethyoxybenzyl)-N-carboxymethyl-3,4-dicarboxybenzylamine] | 540 ± 32 µM | did not alter the affinity | did not alter the affinity | 708 ± 47 µM | – | – | –
2 | O=C(O)CN(Cc1cccc(OC(F)(F)F)c1)Cc1ccc(C(=O)O)c(C(=O)O)c1 [Compound 28, N-(3-trifluoromethoxybenzyl)-N-carboxymethyl-3,4-dicarboxybenzylamine] | 427 ± 31 µM | did not alter the affinity | did not alter the affinity | 684 ± 35 µM | – | – | –
3 | O=C(O)CN(Cc1cccc(C(F)(F)F)c1)Cc1ccc(C(=O)O)c(C(=O)O)c1 [Compound 25, N-(3-trifluoromethylbenzyl)-N-carboxymethyl-3,4-dicarboxybenzylamine] | 441 ± 27 µM | did not alter the affinity | did not alter the affinity | 678 ± 36 µM | – | – | –
4 | N[C@@H](CCC(=O)O)C(=O)O [glutamate] | – | – | – | – | less than 1% | – | –
5 | C[C@H](NCc1ccc(C(=O)O)c(C(=O)O)c1)C(=O)O [Compound 5, N-((2-methyl)carboxymethyl)-3,4-dicarboxybenzylamine] | – | no appreciable effect on the binding affinity | no appreciable effect on the binding affinity; also recorded: did not lead to enhanced affinity | – | – | 296 ± 26 µM | 609 ± 23 µM
